Earlier results as cited in patent US20110189166A1, “METHODS OF TREATING HEMORHEOLOGIC ABNORMALITIES IN MAMMALS” (priority 2010, published 2011).
Blank lines part the entries; values can stand above or below the compound they belong to.

Tests used:
[1] = system: crenated or spiculated red blood cells (echinocytes); settings: horses, after exercise; U.S. Pat. No. 4,383,997
red blood cell = settings: in vitro
cows = settings: inorganic phosphate for 2-5 days
flippase = settings: independent of excess intracellular calcium
human erythrocytes = settings: red blood cells exposed to LPA
[2] = system: aminophospholipid translocase (flippase); settings: by complexing a sulfhydryl group

Compound: CC(=O)CCCCn1c(=O)c2c(ncn2C)n(C)c1=O [pentoxyfylline]
- increase of crenated red blood cells following exercise [1]: inhibit the increase of crenated red blood cells following exercise

Compound: CCCC(=O)Nc1ncnc2c1ncn2[C@@H]1O[C@@H]2COP(=O)(O)O[C@H]2[C@H]1OC(=O)CCC [dibutyryl-cAMP]
- PS exposure (red blood cell): prevents PS exposure
- intracellular calcium entry (red blood cell): inhibits intracellular calcium entry
- reduction of red blood cell aggregation (red blood cell): about 50%

Compound: O=P(O)(O)O [inorganic phosphate]
- hemolysis after treatment (cows): absence of hemolysis
- time to complete recovery (cows): 14 to 21 days

- flippase inhibition (flippase): inhibit flippase directly
Compound: Lysophosphatidic acid [LPA]
- PS exposure on red blood cells (human erythrocytes): resulted in PS exposure
- adherence to endothelial cells (human erythrocytes): increased adherence to endothelial cells
- thrombin generation (human erythrocytes): potentiated thrombin generation

Compound: CCN1C(=O)C=CC1=O [NEM, N-ethylmaleimide]
- activity of aminophospholipid translocase (flippase) [2]: blocks the activity of aminophospholipid translocase (flippase)
